Assay: Membrane permeation property of the cosurfactant in soft capsules over storage at room temperature (cosurfactant content by gas chromatography)
Format: physicochemical
Conditions: after 50 days
Experimental: The content of the cosurfactant in each soft capsule preparation was analyzed by gas chromatography. The components and their constitutional ratios in the compositions used in this experiment are given in the following Table 1 and the experiment results are given in the following Table 2.

CO[C@H]1CO[C@H]2[C@@H]1OC[C@H]2OC [dimethylisosorbide, 1,4:3,6-dianhydro-2,5-dimethyl-D-glucitol]
change in content of the cosurfactant in the soft capsule: does not change in its content even after 50 days

Source: patent EP0650721B1 (HANMI PHARM. IND. CO., LTD., priority 1993, dated 1995)
